{
  "source": "patent US8691183B2",
  "about": "“Means for the detection and treatment of prostate cells” (Eberhard-Karls-Universitaet Tuebingen Universitaetsklinikum, priority 2008, dated 2014)",
  "key": {"[1]": {"tested_on": "LNCaP prostate carcinoma cells", "experiment": "In-vitro MRT / MR relaxometry of cells in Eppendorf tubes", "assay_type": "cell-based, human", "details": "LNCaP; 20 minutes incubation, washed; 130 μM", "protocol": "(§1) For the MR relaxometry, all tumor cell lines were grown in 75 cm^2 culture flasks (Corning Costar, Bodenheim, Germany) (70% confluency). Accutase™ (PAA Laboratories, Pasching, Austria) was added to achieve detachment of the cells, which were harvested and subsequently aliquoted into Eppendorf tubes (6×10^6 cells per tube). The cells in the tubes were incubated with the DOTA-containing compounds (130 μM). After a 20 minutes incubation period at 37° C. in an atmosphere of 5% CO2, the cells were washed three times in PBS and centrifuged at 800 rpm for 5 minutes.\n(§2) The in-vitro MRT was performed with a 3 Tesla-whole body MRT system (Magnetom TRIO, circular polarized wrist coil, Siemens, Erlangen, Germany)\n(§3) Sagittal T1-weighted MR images were obtained using the following spin-echo sequence:\n(§4) Repetition time (TR): 200 ms, echo time (TE): 7,4 ms, flip angle: 90°, averages: 1, concatenations: 2, measurements: 1, number of slices: 19, distance factor: 30%, slice thickness: 3 mm, field of view read: 180 mm/100%, resolution: 256/100%, voxel size: 0.7×0.7×3.0 mm, scan time: 1:48 min.\n(§5) The T1 relaxation times were evaluated from signal intensities obtained by multiple spin-echo measurements:\n(§6) Repetition time (TR): 20-8000 ms (50 different TR values), echo time (TE): 6.4 ms, flip angle: 90°, averages: 1, measurements: 1, number of slices: 1, slice thickness: 1 mm, field of view read: 120 mm/87.5%, resolution: 128/100%, voxel size: 0.9×0.9×1 mm.\n(§7) The analysis and calculations were performed using a Matlab program (Math Works, Natick, Mass., USA). The T1 values were approximated by a three-parameter fit procedure. All signal curves were examined and found to be monoexponential. The investigations were performed in triplicate."}, "[2]": {"tested_on": "other tumor cell lines (non-prostate)", "experiment": "In-vitro MRT / MR relaxometry of cells in Eppendorf tubes", "assay_type": "cell-based, human", "details": "other carcinoma cells; incubation, washed three times with PBS", "protocol": "as §1, §2, §3, §4, §5, §6, §7"}, "[3]": {"tested_on": "LNCaP prostate carcinoma cells", "experiment": "Confocal laser scanning microscopy (CLSM) of cellular uptake", "assay_type": "cell-based, human", "details": "20 minutes incubation, 10 μg/ml", "protocol": "(§8) The cells were grown to 80% confluency at 37° C., 5% CO2 (vol/vol) in 4-well plates (NUNC, Wiesbaden, Germany) with about 300,000 cells per well.\n(§9) U373 human glioma cells, human prostate carcinoma cells PC3 and LNCaP, human Jurkat lymphoma cells, and human colon carcinoma cells Colo205 were grown in RPMI1640 ready mix medium containing L-glutamine and 10% fetal bovine serum (FBS)-gold (PAA Laboratories, Pasching, Austria). U2OS human osteosarcoma cells and HeLa human cervix carcinoma cells were grown in high glucose Dulbeccos modified Eagle's medium containing GlutaMax™ and pyrovate and 10% FBS-gold. Healthy human prostate cells (CC2555, Lonza, Verviers, Belgium) were cultivated in prostate endothelial cell growth medium (PrEGM, Lonza, Verviers, Belgium).\n(§10) The compounds 1, 2 and 4 were dissolved at 1 mg/ml in pure ethanol (Riedel de Haen, Sigma-Aldrich, Taufkirchen, Germany) and then diluted in the appropriate medium for the cells to 10 μg/ml of conjugate and 1% ethanol. The cells were incubated at 37° C. in an atmosphere of 5% CO2 for 20 minutes with the compounds. After this, the cells were rinsed three times with medium and then incubated with medium again. This experiment was also performed with free sulforhodamine B with a corresponding amount.\n(§11) The confocal laser scanning microscopy was performed on an inverted LSM510 laser scanning microscope (Carl Zeiss) (objective: LD Achroplan 40×0.6, Plan Neofluar 20×0.50, 40×0.75). For the rhodamine fluorescence excitation the 543 nm beam of a helium-neon laser with suitable beam splitters and barrier filters were used. All measures were performed at least three times on living, non-fixed cells."}, "[4]": {"tested_on": "colon carcinoma cells (Colo205)", "experiment": "Confocal laser scanning microscopy (CLSM) of cellular uptake", "assay_type": "cell-based, human", "details": "20 minutes incubation, 10 μg/ml", "protocol": "as §8, §9, §10, §11"}, "[5]": {"tested_on": "PC-3 prostate carcinoma cells", "experiment": "Fluorescence activated cell sorting (FACS) of cellular uptake", "assay_type": "cell-based, human", "details": "PC3; 20 minutes incubation; 10 μg/ml", "protocol": "(§12) For the fluorescence activated cell sorting (FACS), cells were grown in 75 cm^2 culture flasks (Corning Costar, Bodenheim, Germany) (80% confluency) under the same conditions as described for the confocal laser scanning microscopy. Accutase™ (PAA Laboratories, Pasching, Austria) was added to achieve detachment of the cells, which were harvested and subsequently alequoted into Eppendorf tubes (Eppendorf, Hamburg, Germany) (1×10^6 cells per tube). The cells were incubated for 20 minutes with the compounds 1, 2 and 4 (10 μg/ml in the appropriate medium with 1% ethanol) and the compound 10 (130 μM in the appropriate medium).\n(§13) Afterwards, the cells were washed three times in PBS and centrifuged at 800 rpm for 5 minutes. Then 300 μl FACS buffer (D-PBS containing 1% parafomaldehyde) were added. The samples were measured immediately. Approximately 20,000 events were recorded per sample. The fluorescence excitation was achieved by an argon laser (488 nm). The fluorescence was detected using a 580-610 and a 560-680 nm band-pass filter. All investigations were performed in triplicate.\n(§14) Mean rhodamine and fluorescein isothiocyanate fluorescence values of the samples were acquired using the WinMDI software (Joseph Trotter, Scripps Research Institute, San Diego, Calif., USA) and then statistically evaluated."}, "[6]": {"tested_on": "non-prostate tumor cell lines", "experiment": "Fluorescence activated cell sorting (FACS) of cellular uptake", "assay_type": "cell-based, human", "details": "remaining carcinoma cell lines; 20 minutes incubation; 10 μg/ml", "protocol": "as §12, §13, §14"}, "[7]": {"tested_on": "PC-3 prostate carcinoma cells", "experiment": "Confocal laser scanning microscopy (CLSM) of cellular uptake", "assay_type": "cell-based, human", "details": "20 minutes incubation, 260 μM", "protocol": "as §8, §9, §10\nThe compound 10 was dissolved in culture medium (260 μM). Lys(FITC)-aminobourgeonal (compound 7) was dissolved in culture medium with 1% ethanol (260 μM). The cells were incubated for 20 minutes (compound 10) and for 2 days (compounds 7 and 10). This assay was also performed with free FITC. After the incubation the cells were rinsed three times with medium and again incubated in medium. Propidium iodide (PI) (molecular probes, Eugene, Oreg., USA) was added to stain death cells.\nas §11, with “All measures were performed at least three times on living, non-fixed cells.” left out"}, "[8]": {"tested_on": "osteosarcoma cells (U2OS)", "experiment": "Confocal laser scanning microscopy (CLSM) of cellular uptake", "assay_type": "cell-based, human", "details": "20 minutes incubation, 260 μM", "protocol": "as §8, §9\nThe compound 10 was dissolved in culture medium (260 μM). Lys(FITC)-aminobourgeonal (compound 7) was dissolved in culture medium with 1% ethanol (260 μM). The cells were incubated for 20 minutes (compound 10) and for 2 days (compounds 7 and 10). This assay was also performed with free FITC. […]\nas §11, with “All measures were performed at least three times on living, non-fixed cells.” left out"}, "[9]": {"tested_on": "seven human tumor cell lines and healthy human epithelial prostate cells (CC2555)", "experiment": "Confocal laser scanning microscopy (CLSM) of cellular uptake, all cell types", "assay_type": "cell-based", "details": "corresponding amount of free dye, 20 minutes", "protocol": "as §8, §9\nThe compounds 1, 2 and 4 were dissolved at 1 mg/ml in pure ethanol (Riedel de Haen, Sigma-Aldrich, Taufkirchen, Germany) and then diluted in the appropriate medium for the cells to 10 μg/ml of conjugate and 1% ethanol. The cells were incubated at 37° C. in an atmosphere of 5% CO2 for 20 minutes with the compounds. […]\nas §11, with “All measures were performed at least three times on living, non-fixed cells.” left out"}},
  "note": "“Also recorded” adds a separate entry of the source.",
  "data": [
    {"compound": "O=C([O-])CN1CCN(CC(=O)[O-])CCN(CC(=O)O)CCN(CC(=O)[O-])CC1.[Gd+3]", "note": "[Gd-DOTA, reference compound]", "values": [
      {"measurement": "uptake / signal intensity of the cells in T1-weighted MRT images", "setting": "[1]", "value": "not taken up by the prostate carcinoma cells; also recorded: remain dark"},
      {"measurement": "signal intensity of the cells in T1-weighted MRT images", "setting": "[2]", "value": "remain dark"}
    ]},
    {"compound": "CCN(CC)c1ccc2c(-c3ccc(S(=O)(=O)NCCC(=O)Nc4ccc(/C=C\\C=O)cc4)cc3S(=O)(=O)[O-])c3ccc(=[N+](CC)CC)cc-3oc2c1", "note": "[compound 2, Sulforhodamine-Sulfonamido βAla-Aminocinnamaldehyde]", "values": [
      {"measurement": "uptake into the cells (rhodamine staining, CLSM)", "setting": "[3]", "value": "significantly stained"},
      {"measurement": "uptake into the cells (rhodamine staining, CLSM)", "setting": "[4]", "value": "basically unstained"}
    ]},
    {"compound": "CCN(CC)c1ccc2c(-c3ccc(S(=O)(=O)NCCC(=O)NCCCCCCCC=O)cc3S(=O)(=O)O)c3ccc(=[N+](CC)CC)cc-3oc2c1", "note": "[compound 4, sulforhodamine-sulfonamido βala-aminooctanal]", "values": [
      {"measurement": "fluorescence (rhodamine, FACS)", "setting": "[5]", "value": "highest fluorescence"},
      {"measurement": "fluorescence (rhodamine, FACS)", "setting": "[6]", "value": "only show little staining"}
    ]},
    {"compound": "fluorescein isothiocyanate [FITC, reference compound]", "values": [
      {"measurement": "uptake into the cells (FITC staining, CLSM)", "setting": "[7]", "value": "not uptaken by the cells"},
      {"measurement": "uptake into the cells (FITC staining, CLSM)", "setting": "[8]", "value": "not uptaken by the cells"}
    ]},
    {"compound": "sulforhodamine B", "values": [
      {"measurement": "uptake by any cell type (rhodamine staining, CLSM)", "setting": "[9]", "value": "not taken up by any cell types"}
    ]}
  ]
}
